Laboratory results taken from patent US20200170975A1 (Strongbridge Dublin Limited, priority 2018, published 2020).
Read-outs that look alike come from different tables or passages of the source.

What was measured:
OCT1 = target: T1, OCT1 (Homo sapiens, UniProt O15245)
T1 sequence (O15245 1-554): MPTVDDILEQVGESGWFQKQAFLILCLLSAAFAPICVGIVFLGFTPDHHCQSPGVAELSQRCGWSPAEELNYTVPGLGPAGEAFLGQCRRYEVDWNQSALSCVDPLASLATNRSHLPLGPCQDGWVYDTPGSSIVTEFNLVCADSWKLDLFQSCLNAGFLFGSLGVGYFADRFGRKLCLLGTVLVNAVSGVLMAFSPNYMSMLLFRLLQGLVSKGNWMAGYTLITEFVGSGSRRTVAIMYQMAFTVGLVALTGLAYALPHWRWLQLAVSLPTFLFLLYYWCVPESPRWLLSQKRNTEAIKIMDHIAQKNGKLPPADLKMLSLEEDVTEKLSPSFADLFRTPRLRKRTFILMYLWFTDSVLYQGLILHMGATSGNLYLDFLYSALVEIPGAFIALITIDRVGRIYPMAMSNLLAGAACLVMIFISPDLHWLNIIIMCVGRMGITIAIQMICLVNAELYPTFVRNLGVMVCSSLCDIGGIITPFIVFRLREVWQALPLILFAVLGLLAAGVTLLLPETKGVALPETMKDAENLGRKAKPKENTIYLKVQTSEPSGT

P-gp = P-gp (Homo sapiens, UniProt P08183); details: 120 min
MATE1 = target: T2, MATE1 (Homo sapiens, UniProt Q96FL8); details: for % control / Background corrected uptake rate: HEK293 cells; for Uptake, MATE1 (Average ± SD): MATE1 HEK293 cells; for Uptake, Control (Average ± SD): control HEK293 cells
T2 sequence (Q96FL8 1-570): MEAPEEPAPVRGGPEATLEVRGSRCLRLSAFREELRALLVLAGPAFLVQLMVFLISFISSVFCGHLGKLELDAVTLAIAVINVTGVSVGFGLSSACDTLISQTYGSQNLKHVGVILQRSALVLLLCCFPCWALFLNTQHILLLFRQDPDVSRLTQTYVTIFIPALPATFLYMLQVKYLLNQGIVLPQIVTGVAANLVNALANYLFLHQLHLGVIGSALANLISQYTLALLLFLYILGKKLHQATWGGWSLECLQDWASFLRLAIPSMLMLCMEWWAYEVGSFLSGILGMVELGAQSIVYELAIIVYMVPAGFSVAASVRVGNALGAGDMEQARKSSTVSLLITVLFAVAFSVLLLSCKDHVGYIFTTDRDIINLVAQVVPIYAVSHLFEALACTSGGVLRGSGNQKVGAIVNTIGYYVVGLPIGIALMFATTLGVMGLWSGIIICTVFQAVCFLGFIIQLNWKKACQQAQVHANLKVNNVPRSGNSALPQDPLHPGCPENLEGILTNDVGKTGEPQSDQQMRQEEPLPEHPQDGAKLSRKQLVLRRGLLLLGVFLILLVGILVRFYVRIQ
Experimental: (§1) [^14C]-Metformin (1 mM) was provided as a solid and was prepared in Hank's balanced salt solution (HBSS).
(§2) Cells were plated onto standard 24-well tissue culture plates in cell culture medium 1 to 3 days before the experiment. MATE1 and MATE2-K and control cells were incubated with butyric acid (10 mM) for 24 hours before the experiment to inhibit suppression of the transporter.

MATE2-K = MATE2-K (Homo sapiens, UniProt Q86VL8); details: for Uptake, MATE2-K (Average ± SD): MATE2-K HEK293 cells; for Uptake, MATE2-K (Average ± SD) / % control / Background corrected uptake rate / Uptake, Control (Average ± SD): [14C]-Metformin 10 μM; for Uptake, Control (Average ± SD): control HEK293 cells
Experimental: as §1, §2

Sequence of MATE2-K (Q86VL8 1-566 isoform Q86VL8-3): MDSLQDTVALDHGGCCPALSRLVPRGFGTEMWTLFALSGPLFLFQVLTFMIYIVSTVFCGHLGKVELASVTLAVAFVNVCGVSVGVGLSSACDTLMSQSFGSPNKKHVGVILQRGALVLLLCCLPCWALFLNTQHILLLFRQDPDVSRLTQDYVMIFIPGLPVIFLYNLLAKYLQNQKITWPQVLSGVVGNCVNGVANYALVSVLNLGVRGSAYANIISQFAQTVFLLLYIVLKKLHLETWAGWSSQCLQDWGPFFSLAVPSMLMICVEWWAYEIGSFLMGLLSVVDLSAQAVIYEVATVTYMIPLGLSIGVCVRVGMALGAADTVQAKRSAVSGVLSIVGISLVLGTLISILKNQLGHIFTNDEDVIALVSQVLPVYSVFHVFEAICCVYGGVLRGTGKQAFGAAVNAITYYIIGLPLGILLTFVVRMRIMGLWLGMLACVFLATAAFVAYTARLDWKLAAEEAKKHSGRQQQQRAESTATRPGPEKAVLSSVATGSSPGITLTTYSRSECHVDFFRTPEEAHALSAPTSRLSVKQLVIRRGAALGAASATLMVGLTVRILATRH
Sequence of P-gp (P08183 whole entry): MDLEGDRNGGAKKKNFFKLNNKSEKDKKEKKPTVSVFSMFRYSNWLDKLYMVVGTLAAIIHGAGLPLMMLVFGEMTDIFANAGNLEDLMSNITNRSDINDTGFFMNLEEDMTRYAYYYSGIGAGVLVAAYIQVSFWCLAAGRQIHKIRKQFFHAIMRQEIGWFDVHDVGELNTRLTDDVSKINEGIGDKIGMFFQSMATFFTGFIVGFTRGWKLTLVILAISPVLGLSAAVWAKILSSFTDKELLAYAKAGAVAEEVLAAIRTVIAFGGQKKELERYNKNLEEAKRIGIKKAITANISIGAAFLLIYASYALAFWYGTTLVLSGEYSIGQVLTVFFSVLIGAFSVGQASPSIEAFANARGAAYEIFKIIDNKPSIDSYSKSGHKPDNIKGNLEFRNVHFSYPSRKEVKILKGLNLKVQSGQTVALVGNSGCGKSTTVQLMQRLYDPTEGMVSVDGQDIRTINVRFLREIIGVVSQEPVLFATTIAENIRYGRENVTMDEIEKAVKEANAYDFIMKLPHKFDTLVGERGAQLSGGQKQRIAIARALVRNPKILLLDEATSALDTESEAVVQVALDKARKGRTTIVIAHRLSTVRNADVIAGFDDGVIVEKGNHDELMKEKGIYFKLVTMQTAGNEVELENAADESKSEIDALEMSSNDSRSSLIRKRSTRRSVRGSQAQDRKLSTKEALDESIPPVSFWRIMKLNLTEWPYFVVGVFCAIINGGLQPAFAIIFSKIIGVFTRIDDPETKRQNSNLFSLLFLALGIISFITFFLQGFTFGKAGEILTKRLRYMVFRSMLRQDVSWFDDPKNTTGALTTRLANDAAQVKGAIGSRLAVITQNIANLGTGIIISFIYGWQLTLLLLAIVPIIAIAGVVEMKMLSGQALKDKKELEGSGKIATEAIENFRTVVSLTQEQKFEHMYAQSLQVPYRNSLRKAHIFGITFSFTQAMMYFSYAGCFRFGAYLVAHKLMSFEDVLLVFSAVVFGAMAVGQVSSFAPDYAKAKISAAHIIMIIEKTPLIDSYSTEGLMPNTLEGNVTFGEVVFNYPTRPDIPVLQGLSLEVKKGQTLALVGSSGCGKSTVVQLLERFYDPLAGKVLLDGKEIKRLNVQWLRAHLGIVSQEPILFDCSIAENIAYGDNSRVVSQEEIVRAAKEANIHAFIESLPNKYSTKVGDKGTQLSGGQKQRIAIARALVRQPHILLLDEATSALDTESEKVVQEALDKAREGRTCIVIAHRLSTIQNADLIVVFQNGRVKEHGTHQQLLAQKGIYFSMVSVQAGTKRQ

Structure (SMILES): NS(=O)(=O)c1cc(Cl)c(Cl)c(S(N)(=O)=O)c1 [Dichlorphenamide, 4,5-dichloro-1,3-benzenedisulfonamide]
- IC50 (OCT1): > 1000 µM
- % control (P-gp; 3 μM): 74.0%
- % control (P-gp; 10 μM): 98.2%
- % control (P-gp; 30 μM): 89.8%
- % control (P-gp; 100 μM): 79.2%
- % control (P-gp; 300 μM): 275%
- % control (P-gp; 1000 μM): 127%
- IC50 (MATE1): > 1000 µM
- % control (MATE1; inhibitor 1 μm): 104%
- Background corrected uptake rate (MATE1; inhibitor 1 μm): 85.8 pmol/mg/min
- % control (MATE1; inhibitor 3 μm): 95.2%
- Background corrected uptake rate (MATE1; inhibitor 3 μm): 78.8 pmol/mg/min
- % control (MATE1; inhibitor 10 μm): 96.4%
- Background corrected uptake rate (MATE1; inhibitor 10 μm): 79.8 pmol/mg/min
- % control (MATE1; inhibitor 30 μm): 103%
- Background corrected uptake rate (MATE1; inhibitor 30 μm): 85.0 pmol/mg/min
- % control (MATE1; inhibitor 100 μm): 99.8%
- Background corrected uptake rate (MATE1; inhibitor 100 μm): 82.6 pmol/mg/min
- % control (MATE1; inhibitor 300 μm): 94.7%
- Background corrected uptake rate (MATE1; inhibitor 300 μm): 78.4 pmol/mg/min
- % control (MATE1; inhibitor 1000 μm): 90.3%
- Background corrected uptake rate (MATE1; inhibitor 1000 μm): 74.7 pmol/mg/min
- Uptake, MATE1 (Average ± SD) (MATE1; inhibitor 1 μm): 436 ± 23 pmol/mg protein
- Uptake, MATE1 (Average ± SD) (MATE1; inhibitor 3 μm): 401 ± 7 pmol/mg protein
- Uptake, MATE1 (Average ± SD) (MATE1; inhibitor 10 μm): 406 ± 12 pmol/mg protein
- Uptake, MATE1 (Average ± SD) (MATE1; inhibitor 30 μm): 432 ± 10 pmol/mg protein
- Uptake, MATE1 (Average ± SD) (MATE1; inhibitor 100 μm): 421 ± 17 pmol/mg protein
- Uptake, MATE1 (Average ± SD) (MATE1; inhibitor 300 μm): 398 ± 17 pmol/mg protein
- Uptake, MATE1 (Average ± SD) (MATE1; inhibitor 1000 μm): 379 ± 13 pmol/mg protein
- Uptake, Control (Average ± SD) (MATE1; inhibitor 1 μm): 6.66 ± 1.31 pmol/mg protein
- Uptake, Control (Average ± SD) (MATE1; inhibitor 3 μm): 6.75 ± 1.65 pmol/mg protein
- Uptake, Control (Average ± SD) (MATE1; inhibitor 10 μm): 7.43 ± 1.34 pmol/mg protein
- Uptake, Control (Average ± SD) (MATE1; inhibitor 30 μm): 6.79 ± 0.89 pmol/mg protein
- Uptake, Control (Average ± SD) (MATE1; inhibitor 100 μm): 7.52 ± 0.96 pmol/mg protein
- Uptake, Control (Average ± SD) (MATE1; inhibitor 300 μm): 5.56 ± 0.16 pmol/mg protein
- Uptake, Control (Average ± SD) (MATE1; inhibitor 1000 μm): 5.52 ± 0.21 pmol/mg protein
- IC50 (MATE1; human, pH 8.5): > 1000 µM
- IC50 (MATE2-K): > 1000 µM
- Uptake, MATE2-K (Average ± SD) (MATE2-K; inhibitor 1 μM): 149 ± 29 pmol/mg protein
- Uptake, MATE2-K (Average ± SD) (MATE2-K; inhibitor 3 μM): 159 ± 19 pmol/mg protein
- Uptake, MATE2-K (Average ± SD) (MATE2-K; inhibitor 10 μM): 113 ± 8 pmol/mg protein
- Uptake, MATE2-K (Average ± SD) (MATE2-K; inhibitor 30 μM): 124 ± 36 pmol/mg protein
- Uptake, MATE2-K (Average ± SD) (MATE2-K; inhibitor 100 μM): 137 ± 15 pmol/mg protein
- Uptake, MATE2-K (Average ± SD) (MATE2-K; inhibitor 300 μM): 166 ± 16 pmol/mg protein
- Uptake, MATE2-K (Average ± SD) (MATE2-K; inhibitor 1000 μM): 106 ± 29 pmol/mg protein
- % control (MATE2-K; inhibitor 1 μM): 101%
- Background corrected uptake rate (MATE2-K; inhibitor 1 μM): 28.0 pmol/mg/min
- % control (MATE2-K; inhibitor 3 μM): 108%
- Background corrected uptake rate (MATE2-K; inhibitor 3 μM): 29.9 pmol/mg/min
- % control (MATE2-K; inhibitor 10 μM): 76.1%
- Background corrected uptake rate (MATE2-K; inhibitor 10 μM): 21.0 pmol/mg/min
- % control (MATE2-K; inhibitor 30 μM): 83.7%
- Background corrected uptake rate (MATE2-K; inhibitor 30 μM): 23.1 pmol/mg/min
- % control (MATE2-K; inhibitor 100 μM): 92.4%
- Background corrected uptake rate (MATE2-K; inhibitor 100 μM): 25.5 pmol/mg/min
- % control (MATE2-K; inhibitor 300 μM): 114%
- Background corrected uptake rate (MATE2-K; inhibitor 300 μM): 31.4 pmol/mg/min
- % control (MATE2-K; inhibitor 1000 μM): 73.2%
- Background corrected uptake rate (MATE2-K; inhibitor 1000 μM): 20.2 pmol/mg/min
- Uptake, Control (Average ± SD) (MATE2-K; inhibitor 1 μM): 9.21 ± 0.93 pmol/mg protein
- Uptake, Control (Average ± SD) (MATE2-K; inhibitor 3 μM): 9.44 ± 2.27 pmol/mg protein
- Uptake, Control (Average ± SD) (MATE2-K; inhibitor 10 μM): 8.28 ± 1.46 pmol/mg protein
- Uptake, Control (Average ± SD) (MATE2-K; inhibitor 30 μM): 8.51 ± 1.05 pmol/mg protein
- Uptake, Control (Average ± SD) (MATE2-K; inhibitor 100 μM): 9.21 ± 1.52 pmol/mg protein
- Uptake, Control (Average ± SD) (MATE2-K; inhibitor 300 μM): 8.86 ± 0.93 pmol/mg protein
- Uptake, Control (Average ± SD) (MATE2-K; inhibitor 1000 μM): 5.13 ± 0.40 pmol/mg protein
- IC50 (MATE2-K; human, pH 8.5): > 1000 µM
